The text below walks through data of US20240132449A1, “HETEROCYCLIC COMPOUNDS AND METHODS OF USE THEREOF” (1cBio, Inc., priority 2022, published 2024).

One assay has as its target PARP1 (Homo sapiens, UniProt P09874). Nature of the assay: PARP1 fluorescence polarization binding assay. Conditions: binding IC50, GST-tagged PARP1 20 nM, PARPi-FL 3 nM. In a few lines: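 Competitive FP binding: 20 nM GST-tagged PARP1 preincubated with compound 30 min at RT, then 3 nM PARPi-FL probe for 4 h at RT; buffer 50 mM Tris pH 8.0, 10 mM MgCl2, 150 mM NaCl. 10-point 3-fold dilutions; % inhibition from mP versus controls, IC50 by four-parameter fit, reported in ranges.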
In general terms: Polarisation of emitted light reports the rotation of a fluorescent probe.

In assay [1] the test system is DLD-1 BRCA2(−/−) colorectal adenocarcinoma cells. Kind of assay: Cell viability assay (Cell Titer-Glo), DLD-1 BRCA2(−/−). Type of assay: cell-based. Conditions: Homo sapiens, DLD-1, 168 h; 7 days incubation, 200 cells/well. In a few lines: (§1)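 Isogenic DLD-1 wild-type (50 cells/well) and BRCA2(−/−) (200 cells/well) lines treated after overnight attachment, 7 days at 37 °C, 5% CO2. Ten-point dilutions (e.g. 1.5 nM–30 μM) or single dose; CellTiter-Glo luminescence; IC50 from four-parameter fit, plus % inhibition at 10 μM.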

Assay [2] deals with DLD-1 wild-type colorectal adenocarcinoma cells. Nature of the assay: Cell viability assay (Cell Titer-Glo), DLD-1 wild-type. Type of assay: cell-based. To be noted: Homo sapiens, DLD-1, 168 h, 7 days incubation; for inhibition at 10 µM: read-out: DLD-1 wild-type % inh at 10 μM; for pIC50: 50 cells/well. A digest of the protocol: as §1

pIC50: −log10 of the molar value. Where a name gives a salt, the structure may show the parent alone.

PARP1, sequence (P09874 whole entry): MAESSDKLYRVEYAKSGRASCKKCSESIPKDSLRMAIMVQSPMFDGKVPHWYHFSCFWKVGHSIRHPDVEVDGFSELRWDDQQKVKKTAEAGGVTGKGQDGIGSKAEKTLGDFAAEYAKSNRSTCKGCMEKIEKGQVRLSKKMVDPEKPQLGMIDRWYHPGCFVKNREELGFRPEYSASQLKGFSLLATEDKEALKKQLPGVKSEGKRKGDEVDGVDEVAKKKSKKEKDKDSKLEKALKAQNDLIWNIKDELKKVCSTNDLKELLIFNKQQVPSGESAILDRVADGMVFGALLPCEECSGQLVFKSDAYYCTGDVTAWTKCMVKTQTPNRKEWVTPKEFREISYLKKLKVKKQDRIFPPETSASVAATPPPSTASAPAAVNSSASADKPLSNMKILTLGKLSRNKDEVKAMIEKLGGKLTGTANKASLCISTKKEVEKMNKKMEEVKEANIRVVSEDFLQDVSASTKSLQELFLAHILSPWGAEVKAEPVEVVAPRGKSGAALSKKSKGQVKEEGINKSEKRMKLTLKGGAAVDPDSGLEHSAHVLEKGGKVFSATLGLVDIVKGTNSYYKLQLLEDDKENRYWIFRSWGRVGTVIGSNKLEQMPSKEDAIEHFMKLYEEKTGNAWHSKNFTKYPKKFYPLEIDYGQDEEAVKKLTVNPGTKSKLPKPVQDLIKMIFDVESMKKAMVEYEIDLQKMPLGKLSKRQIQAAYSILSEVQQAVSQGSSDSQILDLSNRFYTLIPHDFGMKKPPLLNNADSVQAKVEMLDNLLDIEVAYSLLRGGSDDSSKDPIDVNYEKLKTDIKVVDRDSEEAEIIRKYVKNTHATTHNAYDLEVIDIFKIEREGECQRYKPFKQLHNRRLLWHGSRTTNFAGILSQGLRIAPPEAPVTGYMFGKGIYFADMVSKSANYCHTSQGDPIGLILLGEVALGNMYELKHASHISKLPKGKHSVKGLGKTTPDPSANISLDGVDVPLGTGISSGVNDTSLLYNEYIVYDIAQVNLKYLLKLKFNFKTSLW

With `CCN1Cc2ccc(CN3CCN(c4ccc(C(=O)NC)nc4)CC3)cc2NC1=O` [Compound 196, 5-(4-((3-ethyl-2-oxo-1,2,3,4-tetrahydroquinazolin-7-yl)methyl)piperazin-1-yl)-N-methylpicolinamide formate], the pIC50 at PARP1 is > 7.00; in assay [1] it was 5.52 to 6.52; in assay [2], < 5.52. Further, in assay [2], the inhibition at 10 µM was < 33%.

For `CCn1c(=O)[nH]c2cc(CN3CCN(c4ccc(C(=O)NC)nc4C)CC3)ccc2c1=O` [Compound 16, 5-{4-[(3-ethyl-2,4-dioxo-1H-quinazolin-7-yl)methyl]piperazin-1-yl}-N,6-dimethylpyridine-2-carboxamide], the pIC50 at PARP1 was > 7.00; in assay [1], > 6.52; in assay [2], < 5.52. Further, the inhibition at 10 µM in assay [2] is < 33%.

As to `CCn1c(=O)[nH]c2cc(CN3CCN(c4ccc(C(=O)NC)nc4C)CC3)sc2c1=O` [Compound 188, 5-(4-((3-ethyl-2,4-dioxo-1,2,3,4-tetrahydrothieno[3,2-d]pyrimidin-6-yl)methyl)piperazin-1-yl)-N,6-dimethylpicolinamide], the pIC50 on PARP1 was > 7.00; in assay [1], > 6.52; in assay [2] it was < 5.52. Also, in assay [2], the inhibition at 10 µM was < 33%.

On to `CCn1c(=O)[nH]c2cc(CN3CCN(c4ccc(C(=O)NC)nc4)CC3)ccc2c1=O` [Compound 3, 5-(4-((3-ethyl-2,4-dioxo-1,2,3,4-tetrahydroquinazolin-7-yl)methyl)piperazin-1-yl)-N-methylpicolinamide formate], for which the values for the negative logarithm of the IC50 (pIC50) (at PARP1; in assay [1]; in assay [2]) were > 7.00, 5.52 to 6.52 and < 5.52, respectively. For the same compound, in assay [2], the inhibition at 10 µM was < 33%.

`CCn1c(=O)[nH]c2cc(CN3CCN(c4ccc(C(=O)NC)nc4C)CC3)ccc2c1=S` [Compound 51, 5-(4-((3-ethyl-2-oxo-4-thioxo-1,2,3,4-tetrahydroquinazolin-7-yl)methyl)piperazin-1-yl)-N,6-dimethylpicolinamide formate]: the pIC50 was > 7.00 at PARP1, > 6.52 in assay [1] and < 5.52 in assay [2]. The inhibition at 10 µM in assay [2] is > 67%.

The pIC50 is the IC50 on a negative log10 scale, so that one unit is a factor of ten. Higher therefore signals a low IC50.
